Results: publication PMC11425624, “Synthesis of Novel Cu(II), Co(II), Fe(II), and Ni(II) Hydrazone Metal Complexes as Potent Anticancer Agents: Spectroscopic, DFT, Molecular Docking, and MD Simulation Studies” (ACS Omega, 2024)

Assays:
HEK-293T = experiment: MTT cytotoxic activity assay, HEK-293T cells, 72 h; format: cell-based; conditions: HEK-293T healthy human embryonic kidney cell line
Method: (§1) The complexes were tested in human lung cancer and normal embryonic kidney cell lines for 72 h.
Cytotoxic activity studies of compounds (L, L-Cu, L-Co, and L-Fe) were conducted according to the literature.[60] Human lung epithelial carcinoma cells (A549; ATCC CCL-185) and healthy human embryonic kidney cells (HEK-293T) were cultured in Dulbecco’s modified Eagle’s medium-high-glucose supplemented with 10% fetal bovine serum and 1% GlutaMAX in a CO2 incubator at 37 °C. Cells seeded in 96-well plates were exposed to 200, 100, 50, and 25 μM of compounds for 72 h. The MTT stock solution (50 μL, 5 mg/mL) was added to each well. Absorbance was measured using an Epoch 2 ELISA plate reader at 590 nm. The IC50 values were calculated using GraphPad Prism Software version 5.

A549 = experiment: MTT cytotoxic activity assay, A549 cells, 72 h; format: cell-based, human; conditions: for IC50: A549 human lung cancer cell line, MTT
Method: as §1
The MTT stock solution (50 μL, 5 mg/mL) was added to each well. Absorbance was measured using an Epoch 2 ELISA plate reader at 590 nm. The IC50 values were calculated using GraphPad Prism Software version 5.

[1] = Dissolution in cytotoxicity assay medium (0.5% DMSO, DMEM); format: physicochemical
Source text: When the ligand and L-Cu were compared, the cytotoxic effect of L-Cu was almost 17 times more cytotoxic than that of the ligand, including 2-hydroxybenzylidene and 4-fluorobenzohydrazide groups. […] However, the effect of the other two metal complexes (L-Co and L-Fe) and the ligand used as the starting material on the growth of A549 cells was very low compared to that of the positive control drug.

[2] = A549, 50 μM concentration of compound, 72 h
[3] = A549, 200 μM concentration of compound, 72 h

Structure (SMILES)	IC50 (HEK-293T) [µM]	IC50 (A549; 72 h) [µM]	viability at 50 µM (A549; Homo sapiens, A549, 50 μM concentration of compound, 72 h, read-out: Cell viability) [%]	viability at 200 µM (A549; Homo sapiens, A549, 200 μM concentration of compound, 72 h, read-out: Cell viability rate) [%]	Cell viability (A549; [2]) [%]	Cell viability rate (A549; [3]) [%]	Effectiveness relative to cisplatin (A549; A549 cells)	Times more cytotoxic than the ligand (A549; L-Cu compared with ligand L) [times]	Solubility in assay medium [1]
O=C(NN=Cc1ccccc1O)c1ccc(F)cc1 [L, 4-Fluoro-N′-(2-hydroxybenzylidene)benzohydrazide]	18.2	36.7	44.9	8.51	–	–	–	–	–
O=C(NN=Cc1ccccc1[O][Cu][O]c1ccccc1C=NNC(=O)c1ccc(F)cc1)c1ccc(F)cc1 [L-Cu]	2.32	2.14	–	–	5.10	4.66	approximately twice	~17	–
O=C(NN=Cc1ccccc1[O][Fe][O]c1ccccc1C=NNC(=O)c1ccc(F)cc1)c1ccc(F)cc1 [L-Fe]	69.2	78.8	–	–	92.96	5.72	–	–	–
O.O=C(NN=Cc1ccccc1[O-])c1ccc(F)cc1.O=C(NN=Cc1ccccc1[O-])c1ccc(F)cc1.[Ni+2] [L-Ni]	–	–	–	–	–	–	–	–	not fully dissolved in 0.5% DMSO and was precipitated in DMEM
N.N.[Cl][Pt][Cl] [cisplatin, reference compound]	2.62	4.23	–	–	–	–	–	–	–
